Article PMC12467903, “A Sensitive Electrochemical Cholinesterase-Inhibiting Biosensor for Organophosphorus Pesticides Based on Ti3C2TX MXene Quantum Dots” (Biosensors, 2025)

Legend:
Format in all cases: biochemical
[1] = biological target: T1, acetylcholinesterase (AChE) (Electrophorus electricus, UniProt O42275); assay: DPV peak current suppression with immobilized AChE ([…] at […])
[2] = biological target: T1, acetylcholinesterase (AChE); assay: electrochemical detection of thiocholine from hydrolysis by immobilized AChE
[3] = biological target: T1, acetylcholinesterase (AChE); assay: electrochemical (DPV/EIS/CV) inhibition of immobilized AChE, acetylthiocholine substrate

T1 sequence (O42275 24-633): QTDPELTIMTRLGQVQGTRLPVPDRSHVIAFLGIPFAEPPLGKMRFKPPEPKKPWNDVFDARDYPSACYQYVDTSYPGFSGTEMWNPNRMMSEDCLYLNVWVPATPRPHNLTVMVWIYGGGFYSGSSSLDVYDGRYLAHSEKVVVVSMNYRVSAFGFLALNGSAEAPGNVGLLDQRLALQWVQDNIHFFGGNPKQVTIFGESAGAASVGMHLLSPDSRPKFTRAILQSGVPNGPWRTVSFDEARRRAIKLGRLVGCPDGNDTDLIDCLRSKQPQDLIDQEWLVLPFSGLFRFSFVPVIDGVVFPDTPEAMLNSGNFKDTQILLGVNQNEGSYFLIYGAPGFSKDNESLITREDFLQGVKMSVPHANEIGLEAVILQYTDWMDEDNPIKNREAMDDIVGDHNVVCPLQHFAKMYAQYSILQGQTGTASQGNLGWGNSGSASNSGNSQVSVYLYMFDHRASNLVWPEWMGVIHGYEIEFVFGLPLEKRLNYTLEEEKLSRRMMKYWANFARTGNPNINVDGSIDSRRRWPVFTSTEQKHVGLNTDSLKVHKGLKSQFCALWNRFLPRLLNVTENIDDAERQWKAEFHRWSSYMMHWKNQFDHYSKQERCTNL

## COP(=O)(NC(C)=O)SC (stereo not drawn) [ACE, acephate]
[1]
  percent DPV peak current suppression: 37% at 2 nM

## CC(=O)SCC[N+](C)(C)C [ACTI, acetylthiocholine iodide]
[2]
  electrochemical detection of thiocholine from hydrolysis by immobilized AChE: In the absence of OP, AChE efficiently hydrolyzed ACTI into electroactive thiocholine (TCh)

## CCOP(=S)(OCC)Oc1nc(Cl)c(Cl)cc1Cl [CPS, chlorpyrifos]
[3]
  Ki: 62 nM
